One series deals with T1, 5-HT2C receptors (Rattus norvegicus, UniProt P08909).
T1 construct: Male rats of the Wistar line (Iffa-Credo, France); from tissue; host or cells: whole animal: male Wistar rat (in vivo)
T1 sequence (P08909 33-460): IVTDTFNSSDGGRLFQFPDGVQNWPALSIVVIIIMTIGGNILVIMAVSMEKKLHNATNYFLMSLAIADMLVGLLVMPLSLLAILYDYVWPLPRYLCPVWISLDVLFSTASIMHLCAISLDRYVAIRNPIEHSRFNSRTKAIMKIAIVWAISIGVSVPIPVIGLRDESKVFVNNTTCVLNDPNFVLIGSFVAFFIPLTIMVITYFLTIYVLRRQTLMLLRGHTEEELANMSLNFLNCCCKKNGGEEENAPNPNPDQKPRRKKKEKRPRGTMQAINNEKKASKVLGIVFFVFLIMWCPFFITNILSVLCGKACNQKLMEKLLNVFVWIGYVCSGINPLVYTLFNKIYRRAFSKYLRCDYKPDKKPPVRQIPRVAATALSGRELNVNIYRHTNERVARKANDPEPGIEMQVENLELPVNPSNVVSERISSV
Put plainly: Penile erection test in the rat, erection induced by Ro 60-0175. In kind it is in vivo. The settings on record: for ED50: rat, sc, read-out: ID50 (inhibitory dose50) for inhibition of penile erections induced by Ro 60-0175. Here is the method: Penile Erection Test in the Rat, with Erection Induced by Ro 60-0175 (1.25 mg/kg, s.c.)
This test (Eur. J. Pharma., 1997, 325, 9-12) enables evaluation of the capacity of pharmacological agents to inhibit penile erections induced by the administration of Ro 60-0175, a selective 5-HT2C agonist. Inhibition is thus predictive of an antagonist activity in respect of 5-HT2C receptors. Male rats of the Wistar line (Iffa-Credo, France), weighing 120-140 g on the day of the experiment, are placed individually into plexiglass observation boxes (7.5×18×30 cm) having just been administered the product or its carrier. Thirty minutes later, the animals are administered Ro 60-0175 (1.25 mg/kg, s.c.) and the number of erections achieved in the course of the following 30 minutes is counted.

Molecules are shown by their SMILES.

Broadly, the melting point is the temperature, or range, at which the solid turns liquid.

In turn, `COC(=O)C1(C2NCCc3c2[nH]c2ccc(Cl)cc32)CCC1.Cl` (stereo not drawn) registered a melting point of 232 to 233 °C.

With `CCOC(=O)C1(C2NCCc3c2[nH]c2ccc(Cl)cc32)CCC1.Cl` (stereo not drawn) [Example 1, Ethyl 1-(6-chloro-2,3,4,9-tetrahydro-1H-β-carbolin-1-yl)cyclobutanecarboxylate Hydrochloride], on 5-HT2C receptors, the ED50 stood at 0.9 mg/kg.

Turning to `CCOC(=O)C1(C2NCCc3c2[nH]c2cc(Cl)c(Cl)cc32)CCC1.Cl` (stereo not drawn) [Example 6, Ethyl 1-(6,7-dichloro-2,3,4,9-tetrahydro-1H-β-carbolin-1-yl)cyclobutanecarboxylate Hydrochloride], the ED50 at 5-HT2C receptors was 0.9 mg/kg.

In the case of `CCOC(=O)C1(C2NCCc3c2[nH]c2ccc(OC)cc32)CCC1.Cl` (stereo not drawn) [Example 7, Ethyl 1-(6-methoxy-2,3,4,9-tetrahydro-1H-β-carbolin-1-yl)cyclobutanecarboxylate Hydrochloride], the ED50 at 5-HT2C receptors was found to be 1.1 mg/kg.

Take `CCOC(=O)C1(C2NCCc3c2[nH]c2ccc(Cl)c(Cl)c32)CCC1.Cl` (stereo not drawn) [Example 18, Ethyl 1-(5,6-dichloro-2,3,4,9-tetrahydro-1H-β-carbolin-1-yl)cylobutanecarboxylate Hydrochloride]: the “ID50 (inhibitory dose50) for inhibition of penile erections induced by Ro 60-0175” value at 5-HT2C receptors (s.c., male Wistar rats, product given 30 min before Ro 60-0175 (1.25 mg/kg, s.c.), erections counted over following 30 min) was 0.5 mg/kg.

Take `CCOC(=O)C1(C2c3[nH]c4ccc(Cl)cc4c3CCN2C(C)=O)CCC1` (stereo not drawn) [Example 79, Ethyl 1-(2-acetyl-6-chloro-2,3,4,9-tetrahydro-1H-β-carbolin-1-yl)cyclobutanecarboxylate]: the melting point was in the range of 218 to 219 °C.

Values taken from patent US6350757B1, “Beta-carboline compounds” (Les Laboratoires Servier, priority 1999, dated 2002).
